# According to the supplement of paper PMC10307832:
# What was measured:
# Experiment in all cases: relative viability (nuclei count vs DMSO), 5 days (fraction); higher = more cells survive
# [1] = compound: COC1=CC=C(C=C1)CN2C=CC3=C2C=C(C=C3)C(=O)NO + CS(=O)(=O)CCNCc1ccc(-c2ccc3ncnc(Nc4ccc(OCc5cccc(F)c5)c(Cl)c4)c3c2)o1 [Lapatinib] (partner 2 µM)
# Outline: (§1)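 A single step with final 0.05% Triton X-100, 1% formaldehyde and 1 ug/ml Hoechst fixed the cells and stained nuclei 5 days after treatment. Lung cancer cell lines in 1536-well plates had been treated by pin tool the day after seeding with one drug alone or a fixed anchor-drug dose plus five library-drug doses (not always all listed) in √10 steps, and nuclei were counted on 4× images. Relative viability is the ratio of nuclei in treated wells to nuclei in vehicle wells, taken as the median of duplicate plates.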
# [2] = compound: C[C@]1(c2nc3c(C(N)=O)cccc3[nH]2)CCCN1 [Veliparib] + CC(=O)c1c(C)c2cnc(Nc3ccc(N4CCNCC4)cn3)nc2n(C2CCCC2)c1=O [Palbociclib] (partner 0.5 µM)
# Outline: as §1
# [3] = compound: C[C@]1(c2nc3c(C(N)=O)cccc3[nH]2)CCCN1 [Veliparib] + CCNC(=O)c1noc(-c2cc(C(C)C)c(O)cc2O)c1-c1ccc(CN2CCOCC2)cc1 [Luminespib] (partner 0.01 µM)
# Outline: as §1
# [4] = compound: C[C@]1(c2nc3c(C(N)=O)cccc3[nH]2)CCCN1 [Veliparib] + N=C(N)NC(=N)NCCc1ccccc1 [Phenformin] (partner 250 µM)
# Outline: as §1
Cell Line,relative viability ([1]; first compound 0.08 µM),relative viability ([1]; first compound 0.253 µM),relative viability ([1]; first compound 0.8 µM),relative viability ([1]; first compound 2.53 µM),relative viability ([1]; first compound 8 µM),relative viability ([2]; first compound 0.02 µM),relative viability ([2]; first compound 0.06325 µM),relative viability ([2]; first compound 0.2 µM),relative viability ([2]; first compound 0.6325 µM),relative viability ([2]; first compound 2 µM),relative viability ([3]; first compound 0.06325 µM),relative viability ([3]; first compound 0.2 µM),relative viability ([3]; first compound 0.6325 µM),relative viability ([3]; first compound 2 µM),relative viability ([4]; first compound 0.06325 µM),relative viability ([4]; first compound 0.2 µM),relative viability ([4]; first compound 0.6325 µM),relative viability ([4]; first compound 2 µM),relative viability ([3]; first compound 0.02 µM),relative viability ([4]; first compound 0.02 µM)
NCI-H1650,0.254,0.76,0.847,0.86,0.451,0.236,0.305,0.28,0.322,0.345,0.216,0.194,0.199,0.217,0.473,0.519,0.404,0.34,,
EPLC-272H,0.199,0.974,1.04,0.974,0.728,,0.355,0.35,0.317,0.302,0.526,0.485,0.0856,0.179,0.307,0.332,0.292,0.333,0.264,0.304
NCI-H647,0.626,1.07,1.04,1.1,0.97,0.392,0.325,0.425,0.423,0.469,0.142,0.195,0.12,0.359,0.405,0.563,0.505,0.597,0.249,0.438
NCI-H2347,0.517,0.896,1.03,1.01,0.904,0.44,0.411,0.404,0.444,0.477,0.54,0.649,0.547,0.427,0.273,0.473,0.464,0.366,0.484,0.426
NCI-H1792,0.867,0.906,0.824,0.915,0.836,0.635,0.603,0.704,0.692,0.659,0.361,0.508,0.429,0.331,0.213,0.398,0.328,0.247,0.509,0.212
A-427,,1.07,1.1,0.995,0.909,0.507,0.51,0.529,0.5,0.593,0.908,0.72,1.12,0.931,0.29,0.328,0.391,0.278,,
NCI-H2009,0.432,0.886,1.25,0.954,0.767,0.145,0.211,0.235,0.205,0.2,0.96,1.05,1.05,1.13,0.452,0.483,0.457,0.473,1.03,0.455
NCI-H1993,0.639,0.857,0.843,0.864,0.741,,0.569,0.59,0.614,0.636,0.675,0.968,0.64,0.895,0.567,0.561,0.552,0.482,0.713,0.568
NCI-H2087,0.522,1,1.05,1.05,0.807,0.183,0.222,0.249,0.264,0.216,0.188,0.152,0.14,0.145,0.467,0.428,0.435,0.486,0.167,0.334
LCLC-97TM1,,0.872,1.26,0.911,0.806,0.219,0.194,0.233,0.23,0.249,0.729,0.884,0.671,0.678,0.435,0.439,0.428,0.499,0.729,0.428
HCC-827,0.189,0.212,0.168,0.181,0.178,0.458,0.459,0.51,0.176,0.454,0.692,0.654,0.493,0.588,0.396,0.43,0.368,0.387,0.468,0.357
COR-L 105,,0.367,0.37,0.341,0.296,0.402,0.47,0.4,0.375,0.444,0.743,0.831,0.59,0.851,0.464,0.504,0.492,0.451,0.794,0.386
NCI-H1915,0.301,0.977,1.01,1,0.958,0.541,0.461,0.519,0.512,0.504,0.6,0.647,0.553,0.596,0.36,0.345,0.36,0.361,0.799,0.379
NCI-H650,0.601,0.837,0.927,0.732,0.759,0.309,0.278,0.344,0.33,0.331,0.708,0.652,0.721,0.797,0.385,0.405,0.408,0.412,0.768,0.439
HCC-44,0.777,0.924,0.944,0.921,0.963,1,0.834,0.996,0.964,1.01,,1.12,0.917,0.985,0.144,0.188,0.17,0.135,1.09,0.157
NCI-H2228,0.864,0.853,1.11,0.916,0.789,0.553,0.897,0.645,0.774,0.759,0.0988,0.145,0.123,0.154,0.301,0.276,0.284,0.236,0.141,0.209
PC-14,0.199,0.349,0.38,0.384,0.373,,0.514,0.51,0.465,0.523,0.147,0.198,0.151,0.145,0.526,0.647,0.59,0.435,,
